Reference: patent US20070059799A1 (priority 1999, published 2007)

Experiments:
[1] = target: A*6802 (Homo sapiens, UniProt P04439, A269V/D140Y/D185E/E176V/E277Q/E87N/F33Y/G231S/I121R/I166T/I218V/L180W/L300P/L318F/N151K/P208A/P217A/Q86R/R138H/R169H/S129P/T345S/V36M); experiment: Purified HLA class I peptide binding assay
[2] = target: A*0202 (Homo sapiens, UniProt P04439, D140Y/D185E/D98H/E176V/E277Q/G131W/G231S/I119L/I121R/I166T/I218V/L180W/L300P/L318F/N151K/N90K/P208A/P217A/Q67R/Q86G/Q94H/R138H/R169H/T345S); experiment: Purified HLA class I peptide binding assay
[3] = test system: A2-supertype alleles; type: binding, human; conditions: number of supertype alleles bound; 3 or more considered degenerate
[4] = target: T1, A*0301 (Homo sapiens, UniProt P04439); experiment: Purified HLA class I peptide binding assay (HLA-A*03)
T1 construct: endogenous in cells; host or cells: GM3107

[5] = target: A*3101 (Homo sapiens, UniProt P04439, A270S/D185E/E176V/E277Q/F33T/G231S/G80R/H175R/I121M/I218V/I322F/K168Q/L300P/L318F/M331R/P217A/Q94H/R138Q/T323A/T345S/T97I/V358M); experiment: Purified HLA class I peptide binding assay
[6] = target: A*3301 (Homo sapiens, UniProt P04439, A270S/D185E/E176V/E277Q/E87N/F33T/G231S/H175R/I121M/I218V/I322F/K168Q/K210R/L300P/L318F/M331R/P217A/Q86R/Q94H/R138Q/T323A/T345S/T97I/V358M/Y195H); experiment: biochemical; type: binding
[7] = target: A*1101 (Homo sapiens, UniProt P04439, A114D/D185E/E176A/F33Y/L180Q/S129P/T187R); experiment: Purified HLA class I peptide binding assay (HLA-A*11)
[8] = target: A*6801 (Homo sapiens, UniProt P04439, A269V/D185E/E176V/E277Q/E87N/F33Y/G231S/I121M/I166T/I218V/L180W/L300P/L318F/N151K/P208A/P217A/Q86R/R169H/T345S); experiment: Purified HLA class I peptide binding assay
[9] = target: T2, DRB1*0301 (DR3) (Homo sapiens, UniProt P01903+P01911, A100K/A102G/A103R/A169T/F55Y/I96L/K41T/L162R/M171V/P40S/Q125H/Q178H/Q39Y/R42S/S66N/T106N/T262R/W38E/Y61H); experiment: Purified HLA class II peptide binding assay, pH 4.5
T2 construct: endogenous in cells; host or cells: MAT

[10] = target: T3, DRB1*1302 (DR6w19) (Homo sapiens, UniProt P01903+P01911, A100E/A169T/K41T/L162R/M171V/P40S/Q125H/Q178H/Q39Y/Q99D/R42S/S66N/T262R/V115G/W38E/Y61H); experiment: Purified HLA class II peptide binding assay
T3 construct: endogenous in cells
T3 sequence (P01903 26-254, other chains not shown): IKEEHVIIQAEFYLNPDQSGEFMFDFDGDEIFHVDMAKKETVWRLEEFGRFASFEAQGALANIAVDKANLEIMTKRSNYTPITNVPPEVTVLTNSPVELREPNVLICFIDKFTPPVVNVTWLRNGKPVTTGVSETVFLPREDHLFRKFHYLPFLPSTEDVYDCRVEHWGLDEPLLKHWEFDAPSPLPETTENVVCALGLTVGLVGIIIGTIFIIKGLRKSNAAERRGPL

Structure (SMILES): CC[C@H](C)[C@H](N)C(=O)N[C@@H](CC(C)C)C(=O)N[C@@H](CO)C(=O)N[C@H](C(=O)N[C@@H](CC(C)C)C(=O)N1CCC[C@H]1C(=O)N[C@@H](CCC(=O)O)C(=O)N[C@H](C(=O)N[C@H](C(=O)N[C@H](C(=O)O)C(C)C)[C@@H](C)O)[C@@H](C)O)[C@@H](C)O [Peptide 1069.14]
- IC50 [1]: 5970 nM
- IC50 [2]: 506 nM
- Alleles bound [3]: 2

Structure (SMILES): CC[C@H](C)[C@H](NC(=O)[C@@H]1CCCN1C(=O)[C@H](CC(C)C)NC(=O)[C@@H](N)CC(C)C)C(=O)N[C@@H](Cc1ccccc1)C(=O)N[C@@H](Cc1ccccc1)C(=O)N[C@@H](CS)C(=O)N[C@@H](CC(C)C)C(=O)N[C@@H](Cc1c[nH]c2ccccc12)C(=O)N[C@H](C(=O)N[C@@H](Cc1ccc(O)cc1)C(=O)O)C(C)C [Peptide 26.0549]
- IC50 [4]: 478 nM
- IC50 [5]: 2610 nM
- IC50 [6]: 644 nM
- IC50 [7]: 10000 nM
- IC50 [8]: 82 nM

Structure (SMILES): CC[C@H](C)[C@H](NC(=O)[C@H](Cc1c[nH]c2ccccc12)NC(=O)[C@@H](NC(=O)CN)C(C)C)C(=O)N[C@@H](CCCNC(=N)N)C(=O)N[C@H](C(=O)N1CCC[C@H]1C(=O)N1CCC[C@H]1C(=O)N[C@@H](C)C(=O)N[C@@H](Cc1ccc(O)cc1)C(=O)N[C@@H](CCCNC(=N)N)C(=O)N1CCC[C@H]1C(=O)N1CCC[C@H]1C(=O)N[C@@H](CC(N)=O)C(=O)N[C@@H](C)C(=O)O)[C@@H](C)O [27.0280]
- IC50 [9]: > 20000 nM
- IC50 [10]: > 20000 nM

Structure (SMILES): CC(C)C[C@H](NC(=O)[C@H](Cc1c[nH]c2ccccc12)NC(=O)[C@H](CO)NC(=O)[C@H](CC(C)C)NC(=O)[C@@H](N)CC(N)=O)C(=O)N[C@@H](CO)C(=O)N[C@@H](CC(C)C)C(=O)N[C@@H](CC(=O)O)C(=O)N[C@H](C(=O)N[C@@H](CO)C(=O)N[C@@H](C)C(=O)N[C@@H](C)C(=O)N[C@@H](Cc1ccccc1)C(=O)N[C@@H](Cc1ccc(O)cc1)C(=O)N[C@@H](Cc1c[nH]cn1)C(=O)O)C(C)C [Peptide 1186.18]
- IC50 [9]: 231 nM
